# System: transglutaminase 1 (TG1) mRNA in human epidermal keratinocytes
# Assay: Expression of transglutaminase 1 (TG1) by differentiating keratinocytes (real time PCR of TG1 mRNA)
# Assay type: cell-based
# Settings: substances alone: retinol 1×10−10 M, TSA 10−9 M; 1.3 mM calcium; 72 hours; relative to non-treated cells
# Text: This example illustrates how the HDAC inhibitor Trichostatin A and Retinol work synergistically. An in vitro cell culture of human primary keratinocytes has been chosen as test system. This in vitro cell culture model is useful to study differentiation processes and is able to simulate the in vivo situation in human skin (Poumay et al., 1999). To monitor differentiation processes in vitro and in vivo transglutaminase 1 is a well known marker molecule (Polakowska et al., 1999).
# Epidermal keratinocytes were isolated from human foreskin biopsies and cultured in keratinocyte serum free medium (KSFM made by GIBCO) in a growth chamber with 37° C. and 5% CO2. At the second passage, cells were transferred to 6 well plates and allowed to reach approximately 50% surface confluence.
# Retinol and TSA were solubilized in ethanol or ethanol/tetrahydrofuran respectively. Retinol solutions were handled under yellow light conditions only. […]
# Seventy-two hours after the beginning of the treatment, cells were harvested and the RNA extracted. […] Relative quantification of TG1 mRNA transcript levels in control versus treatment cultures were determined using multiplexed real time PCR analysis. […]
row,Structure (SMILES),modulation of the terminal differentiation process in epidermal keratinocytes (TG1 mRNA)
1,CC1=C(/C=C/C(C)=C/C=C/C(C)=C/CO)C(C)(C)CCC1 [Retinol],only weak modulation
2,"CC(/C=C/C(=O)NO)=C\[C@@H](C)C(=O)c1ccc(N(C)C)cc1 [TSA, Trichostatin A]",only weak modulation

# — patent US20100286278A1, “Composition comprising an HDAC inhibitor in combination with a retinoid” (DSM IP ASSETS B.V., priority 2004, published 2010)
